Measured values from US9181234B2, “Antibacterial compounds” (priority 2010, dated 2015).
Values after ≈ are worked out from the molar mass of the structure shown. Read-outs that look alike come from different tables or passages of the source.

Legend:
[1] = test system: Enterococcus faecalis (Isolate ID ATCC 29212); assay: Antibacterial activity, MIC, E. faecalis; type: cell-based; details: Enterococcus faecalis, ATCC29212; Gram positive strain; broth microdilution or agar dilution
Method in brief: (§1)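 Susceptibility testing run in liquid or on solid media, with MIC values obtained by the CLSI-described broth microdilution or agar dilution method.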

physchem = details: kinetic from dmso stock
Method in brief: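 DMSO doubling dilutions were diluted twenty-fold into 100 mM citrate (pH 4), PBS (pH 7.4) or carbonate-bicarbonate (pH 9). After 24 h equilibration at room temperature, absorbance was read at 620 nm. The reported value is the highest concentration without measurable precipitate.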

[2] = test system: Staphylococcus aureus (Isolate ID ATCC 29213); assay: Antibacterial activity, MIC, S. aureus; type: cell-based; details: Staphylococcus aureus, ATCC29213, Gram positive strain; broth microdilution or agar dilution
Method in brief: as §1

[3] = test system: Streptococcus pyogenes (Isolate ID ATCC 51339); assay: Antibacterial activity, MIC, S. pyogenes; type: cell-based; details: Streptococcus pyogenes, ATCC51339, Gram positive strain; broth microdilution or agar dilution
Method in brief: as §1

[4] = Pharmacokinetic assay, IV and oral PK profile, rat; type: in vivo; details: for bioavailability: read-out: F (%) bioavailability
Protocol: Pharmacokinetic Assays: Determination of PK Profile
The pharmacokinetic profiles of compounds were determined by measuring the compound concentration in plasma by LC/MS/MS following a single intravenous or peroral administration of the compounds at a dose of 3 mg/kg. The concentrations described are the mean plasma concentrations at each time point from three animals. Intravenous dose formulation was administered as a single bolus dose through the tail vein. Oral dose formulation was administered to animals by an oral gavage needle. In both cases the dose volume was 5.0 mL/kg. Blood was collected from rats using a jugular vein catheter and from anesthetized mice through a capillary guided into the retro-orbital plexus. The collected blood was centrifuged to obtain plasma and the compounds extracted into methanol prior to determining the compound concentration by LC/MS/MS. The results for selected compounds of the invention are shown in FIGS. 2 to 8 where the X axis denotes time (hours) and the Y axis denotes plasma concentration (ng/mL). The Cmaxoral (μg/mL), AUCiv (μg·hr/mL), AUCoral (μg.hr/mL) and F(%) values are provided in the following table where Cmaxoral is the maximum oral concentration, AUC is area under the curve for intraveneous (IV) and oral and F (%) represents compound bioavailability as calculated by [AUCoral/AUCiv]×100%.

[5] = test system: Haemophilus influenzae (Isolate ID ATCC 49247); assay: Antibacterial activity, MIC, H. influenzae; type: cell-based; details: Haemophilus influenzae, ATCC49247; Gram negative strain; broth microdilution or agar dilution
Method in brief: as §1

[6] = pH 7.4, aqueous buffer, Max Solubility
[7] = pH 7.4, aqueous buffer, Solubility (pH 7.4)
[8] = pH 7.4, aqueous buffer, Solubility Range
[9] = pH 7.4, aqueous buffer, Solubility Range (maximum solubility)
[10] = po, single peroral dose 3 mg/kg, plasma, read-out: AUCoral
[11] = single peroral dose 3 mg/kg, plasma
[12] = plasma, po, [AUCoral/AUCiv]×100%, 3 mg/kg
[13] = single intravenous dose 3 mg/kg, plasma, read-out: AUCiv

Work on CCNC(=O)Nc1nc2cc(-c3cnc(N4CCC(C)(C(=O)O)CC4)nc3)cc(-c3ccccn3)c2s1 [Compound 1, 1-[5-[2-(ethylcarbamoylamino)-7-(2-pyridyl)-1,3-benzothiazol-5-yl]pyrimidin-2-yl]-4-methyl-piperidine-4-carboxylic acid] yielded an MIC [1] of at most 0.25 µg/mL, a solubility at 24 h (physchem; [6]) of at least 800 µg/mL and a solubility at 24 h (physchem; [7]) of at least 800 µg/mL. It also gave a solubility at 24 h (physchem; [8]) of over 800 µg/mL, a solubility at 24 h (physchem; [9]) of over 800 µg/mL and an MIC [2] of at most 0.25 µg/mL. For the same compound, the MIC [3] was at most 0.25 µg/mL, the “F (%) bioavailability” value ([4]; [AUCoral/AUCiv]×100%, 3 mg/kg) was 48% and the AUC [4, 10] was 8300 ng·h/mL. It also gave an AUCiv ([4]; single intravenous dose 3 mg/kg, plasma) of 17400 ng·h/mL, a Cmaxoral [4, 11] of 1800 ng/mL and an MIC [5] of 1 to 16 µg/mL (≈ 1.93 to 30.9 µM).

CCNC(=O)Nc1nc2cc(-c3cnc(N4CCC(C)(C(=O)O)CC4)nc3)cc(-c3cscn3)c2s1 [Compound 21] showed an MIC [1] of at most 0.25 µg/mL, a solubility at 24 h (physchem; [7]) of at least 800 µg/mL and a solubility at 24 h (physchem; [8]) of over 800 µg/mL. For the same compound, the MIC [2] was at most 0.25 µg/mL, the MIC [3] was 0.25 to 1 µg/mL (≈ 0.477 to 1.91 µM) and the bioavailability [4, 12] was 14.3%. It also gave an AUC [4, 10] of 1000 ng·h/mL, an AUC [4, 13] of 7100 ng·h/mL and a Cmaxoral [4, 11] of 400 ng/mL. The MIC [5] was 1 to 16 µg/mL (≈ 1.91 to 30.6 µM).

With CCNC(=O)Nc1nc2cc(-c3ccc(N4CCC(CC)(C(=O)O)CC4)nc3)cc(-c3ccccn3)c2s1 [Compound 103] the MIC [1] was at most 0.25 µg/mL, the solubility at 24 h (physchem; [7]) was 400 µg/mL (≈ 754 µM) and the solubility at 24 h (physchem; [8]) was 400 to 800 µg/mL (≈ 754 to 1510 µM). For the same compound, the solubility at 24 h (physchem; pH 9, aqueous buffer, Max Solubility) was at least 800 µg/mL, the solubility at 24 h (physchem; pH 9, aqueous buffer, Solubility Range (maximum solubility)) was over 800 µg/mL and the MIC [2] was at most 0.25 µg/mL. The MIC [3] was at most 0.25 µg/mL, the bioavailability [4, 12] was 76.5% and the AUC [4, 10] was 22200 ng·h/mL. The AUC [4, 13] was 29000 ng·h/mL, the Cmaxoral [4, 11] was 5700 ng/mL and the MIC [5] was 1 to 16 µg/mL (≈ 1.88 to 30.2 µM).

For CCNC(=O)Nc1nc2cc(-c3cnc(N4CCC(COC)(C(=O)O)CC4)nc3)cc(-c3ccccn3)c2s1 [Compound 141], the MIC [1] was at most 0.25 µg/mL, the solubility at 24 h (physchem; [6]) was at least 800 µg/mL and the solubility at 24 h (physchem; [7]) was at least 800 µg/mL. For the same compound, the solubility at 24 h (physchem; [8]) was over 800 µg/mL, the solubility at 24 h (physchem; [9]) was over 800 µg/mL and the MIC [2] was at most 0.25 µg/mL. It also gave an MIC [3] of at most 0.25 µg/mL, a bioavailability [4, 12] of 8.9% and an AUC [4, 10] of 700 ng·h/mL. For the same compound, the AUC [4, 13] was 8300 ng·h/mL, the Cmaxoral [4, 11] was 300 ng/mL and the MIC [5] was 1 to 16 µg/mL (≈ 1.83 to 29.2 µM).

In the case of CCNC(=O)Nc1nc2cc(-c3cnc(N4CCC(NC(=O)OC(C)(C)C)(C(=O)OC)CC4)nc3)cc(-c3ccccn3)c2s1 [Compound 167], the MIC [1] is reported as at most 0.25 µg/mL, the solubility at 24 h (physchem; [7]) is reported as 12.5 µg/mL (≈ 19.8 µM) and the solubility at 24 h (physchem; [8]) is reported as 12.5 to 400 µg/mL (≈ 19.8 to 632 µM). It also gave an MIC [2] of 1 to 16 µg/mL (≈ 1.58 to 25.3 µM), an MIC [3] of at most 0.25 µg/mL and an MIC [5] of over 16 µg/mL.

CCNC(=O)Nc1nc2cc(-c3cnc(N4CCC(N)(C(=O)OC)CC4)nc3)cc(-c3ccccn3)c2s1 [Compound 168] gave an MIC [1] of at most 0.25 µg/mL, a solubility at 24 h (physchem; [7]) of 25 µg/mL (≈ 46.9 µM) and a solubility at 24 h (physchem; [8]) of 12.5 to 400 µg/mL (≈ 23.5 to 751 µM). The MIC [2] was 0.25 to 1 µg/mL (≈ 0.469 to 1.88 µM), the MIC [3] was 1 to 16 µg/mL (≈ 1.88 to 30 µM) and the MIC [5] was over 16 µg/mL.

Compound CCNC(=O)Nc1nc2cc(-c3cnc(N4CCC(C)(C(=O)OC)CC4)nc3)cc(-c3ccccn3)c2s1 [Compound 169] has an MIC [1] of 0.25 to 1 µg/mL (≈ 0.47 to 1.88 µM), a solubility at 24 h (physchem; [7]) of 6.25 µg/mL (≈ 11.8 µM) and a solubility at 24 h (physchem; [8]) of under 12.5 µg/mL. The MIC [2] was 1 to 16 µg/mL (≈ 1.88 to 30.1 µM), the MIC [3] was at most 0.25 µg/mL and the MIC [5] was 1 to 16 µg/mL (≈ 1.88 to 30.1 µM).

Compound CCNC(=O)Nc1nc2cc(-c3cnc(N4CCC(=O)C(C)(C(=O)OC)C4)nc3)cc(-c3ccccn3)c2s1 (stereo not shown) [Compound 170] has an MIC [1] of at most 0.25 µg/mL, a solubility at 24 h (physchem; [7]) of 6.25 µg/mL (≈ 11.5 µM) and a solubility at 24 h (physchem; [8]) of under 12.5 µg/mL. It also gave an MIC [2] of 0.25 to 1 µg/mL (≈ 0.458 to 1.83 µM), an MIC [3] of 0.25 to 1 µg/mL (≈ 0.458 to 1.83 µM) and an MIC [5] of over 16 µg/mL.

Compound CCNC(=O)Nc1nc2cc(-c3cnc(N4CCC(C)(C(=O)OCC)CC4)nc3)cc(-c3ccccn3)c2s1 [Compound 171] has an MIC [1] of 0.25 to 1 µg/mL (≈ 0.458 to 1.83 µM), a solubility at 24 h (physchem; [7]) of 3.12 µg/mL (≈ 5.73 µM) and a solubility at 24 h (physchem; [8]) of under 12.5 µg/mL. For the same compound, the MIC [2] was over 16 µg/mL, the MIC [3] was at most 0.25 µg/mL and the MIC [5] was 1 to 16 µg/mL (≈ 1.83 to 29.3 µM).

CCNC(=O)Nc1nc2cc(-c3cnc(N4CCC(O)C(C)(C(=O)OC)C4)nc3)cc(-c3ccccn3)c2s1 (stereo not shown) [Compound 172] gave an MIC [1] of at most 0.25 µg/mL, a solubility at 24 h (physchem; [7]) of 12.5 µg/mL (≈ 22.8 µM) and a solubility at 24 h (physchem; [8]) of 12.5 to 400 µg/mL (≈ 22.8 to 730 µM). It also gave an MIC [2] of 1 to 16 µg/mL (≈ 1.83 to 29.2 µM), an MIC [3] of at most 0.25 µg/mL and an MIC [5] of 1 to 16 µg/mL (≈ 1.83 to 29.2 µM).
